Patent US12319695B2, “Sulfonamide derivative with fused pyrimidine skeleton, having epidermal growth factor receptor mutation inhibitory effect” (HANMI PHARM. CO., LTD., priority 2018, dated 2025)
pIC50: −log10 of the molar value.

Legend:
[1] = test system: PC9 EGFR del19/T790M/C797S cells; assay: PC9 EGFR del19/T790M/C797S cell growth inhibition test (CellTiter-Glo, 72 hours); assay type: cell-based; details: Homo sapiens, PC-9, PC9 cell line overexpressing EGFR del19/T790M/C797S
Method: For cell growth conditions, an RPMI Medium 1640 (1×) containing 10% FBS and 1% penicillin/straptomycin (Gibco BRL) was used.
Specifically, the cell line stored in a liquid nitrogen tank was taken out, rapidly dissolved at 37° C., and thereafter centrifuged to remove the cryopreservation medium. The recovered cell pellets were well mixed in a culture medium, put into a culture flask, and passaged under conditions of 37° C. and 5% carbon dioxide to stabilize the cells to logarithmic cell growth phase. Thereafter, cells were taken from the flask, centrifuged to remove the culture medium, washed with Dulbecco's phosphate buffered saline (DPBS), and then centrifuged again to remove DPBS, and then diluted with a culture medium to have 1×10^5 cells/ml. The diluted cells were dispensed into a 96-well plate at 100 μl per well. The compounds prepared in the above examples were each dissolved in 99.5% dimethylsulfoxide (hereinafter, DMSO, cell culture grade) to a concentration of 10 mM. The DMSO solution containing each compound was diluted with a culture medium to a concentration of 30 μM, and then tenfold serial dilution was used to prepare a solution diluted upto 0.3 nM (in order to reach a final DMSO concentration of 1% or less).
The cells treated with the test solution were cultured under conditions of 37° C. and 5% carbon dioxide for 72 hours. After the 96-well plate in which the cells were cultured was acclimated to room temperature for 30 minutes, CellTiter-Glo® Luminescent Cell Assay Reagent (CTG, Promega) was dispensed at 50 μl per well. After stabilizing luminescence signals for 10 minutes, the luminescence intensity was measured with a microplate reader.
Based on the measured value, a […] value of each compound, which is the concentration at which cell growth is inhibited by 50%, was calculated with respect to 100% of the value obtained by subtracting the initial cell density value of a well not treated with a test material from the final cell density value thereof. The GI50 value of each compound was calculated using nonlinear regression of GraphPad Prism; log[inhibitor] vs. normalized response analysis.

[2] = test system: Ba/F3 EGFR del19/T790M/C797S cells; assay: Ba/F3 EGFR del19/T790M/C797S cell growth inhibition test (CellTiter-Glo, 72 hours); assay type: cell-based; details: Ba/F3 cell line overexpressing EGFR del19/T790M/C797S, 72 hours, CellTiter-Glo; read-out: Ba/F3 EGFR del19/T790M/C797S cells, GI50;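 further: compounds tested in tenfold steps from 10 µM down to 0.1 nM, with luminescence read on a microplate reader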
Method: Specifically, the cell line stored in a liquid nitrogen tank was taken out, rapidly dissolved at 37° C., and thereafter centrifuged to remove the cryopreservation medium. The recovered cell pellets were well mixed in a culture medium, put into a culture flask, and passaged under conditions of 37° C. and 5% carbon dioxide to stabilize the cells to the logarithmic growth phase. Thereafter, cells were taken from the flask, centrifuged to remove the culture medium, washed with Dulbecco's phosphate buffered saline (DPBS), and then centrifuged again to remove DPBS, and then diluted with a culture medium to have 1×10^5 cells/ml. The diluted cells were dispensed into a 96-well plate at 100 μl per well. […] The DMSO solution containing each compound was diluted with a culture medium to a concentration of 30 μM, and then tenfold serial dilution was used to prepare a solution diluted upto 0.3 nM (in order to reach a final DMSO concentration of 1% or less).
50 μl of a test solution of each compound was added each time to the 96-well plate in which the cells were dispensed, thus reaching a final concentration of 10 μM to 0.1 nM in 150 μl per well. The cells treated with the test solution were cultured under conditions of 37° C. and 5% carbon dioxide for 72 hours. After the 96-well plate in which the cells were cultured was acclimated to room temperature for 30 minutes, CellTiter-Glo® Luminescent Cell Assay Reagent (CTG, Promega) was dispensed at 50 μl per well. After stabilizing luminescence signals for 10 minutes, the luminescence intensity was measured with a microplate reader.

EGFR T790M/L858R = molecular target: T1, EGFR T790M/L858R (Homo sapiens, UniProt P00533, L858R/T790M); assay: EGFR enzyme inhibitory activity evaluation (Z'-LYTE kinase assay), T790M/L858R; assay type: biochemical
T1 construct: purchased Thermo Fisher Scientific Inc
T1 sequence (P00533 25-1210 T790M/L858R): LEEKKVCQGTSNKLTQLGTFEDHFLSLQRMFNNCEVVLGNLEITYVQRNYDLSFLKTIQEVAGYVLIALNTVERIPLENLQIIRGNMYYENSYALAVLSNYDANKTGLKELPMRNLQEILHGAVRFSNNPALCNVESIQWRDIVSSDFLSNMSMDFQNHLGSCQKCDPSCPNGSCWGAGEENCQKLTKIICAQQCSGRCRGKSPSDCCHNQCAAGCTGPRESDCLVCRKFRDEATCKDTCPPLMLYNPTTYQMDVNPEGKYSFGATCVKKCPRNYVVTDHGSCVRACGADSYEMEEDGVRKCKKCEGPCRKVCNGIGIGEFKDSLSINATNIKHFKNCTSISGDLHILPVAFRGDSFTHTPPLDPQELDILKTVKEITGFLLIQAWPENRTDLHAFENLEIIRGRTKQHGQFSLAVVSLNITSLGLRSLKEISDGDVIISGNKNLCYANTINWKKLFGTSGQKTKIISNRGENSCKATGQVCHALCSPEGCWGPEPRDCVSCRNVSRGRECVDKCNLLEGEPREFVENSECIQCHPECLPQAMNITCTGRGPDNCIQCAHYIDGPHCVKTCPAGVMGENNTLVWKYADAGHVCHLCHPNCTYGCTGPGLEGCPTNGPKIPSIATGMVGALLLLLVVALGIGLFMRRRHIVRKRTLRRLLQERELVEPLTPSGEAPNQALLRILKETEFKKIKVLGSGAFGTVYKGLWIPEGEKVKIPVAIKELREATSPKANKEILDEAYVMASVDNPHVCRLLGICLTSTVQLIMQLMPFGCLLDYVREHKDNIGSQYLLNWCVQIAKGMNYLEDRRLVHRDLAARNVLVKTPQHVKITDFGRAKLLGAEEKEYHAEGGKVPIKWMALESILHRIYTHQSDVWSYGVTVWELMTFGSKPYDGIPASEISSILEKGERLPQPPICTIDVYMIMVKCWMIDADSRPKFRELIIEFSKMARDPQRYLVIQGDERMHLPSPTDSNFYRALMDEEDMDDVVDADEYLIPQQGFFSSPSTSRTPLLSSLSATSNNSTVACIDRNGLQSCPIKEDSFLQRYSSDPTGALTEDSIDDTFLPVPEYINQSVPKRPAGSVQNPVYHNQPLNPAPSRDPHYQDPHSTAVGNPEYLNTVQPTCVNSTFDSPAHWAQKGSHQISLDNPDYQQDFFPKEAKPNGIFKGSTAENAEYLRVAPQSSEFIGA
Method: (§1) For this, a Z′-LYTE kinase assay kit (ThermoFisher Scientific, PV3191) was used, and the kinases used were purchased from Thermo Fisher Scientific Inc. A simple test method is summarized as follows.
(§2) Each kinase was diluted to a concentration of 7-45 ng/assay using a kinase buffer (50 mM HEPES (pH 7.5), 10 mM MgCl2, 4 mM MnCl2, 2 mM DTT, 1 mM EGTA, 0.01% BRIJ-35, or 50 mM HEPES (pH 6.5), 10 mM MgCl2, 1 mM EGTA, 0.01% BRIJ-35, 0.02% NaN3). The test was performed on 384 well plates (well polystyrene flat-bottomed plates). First, after 5 μl of a diluted compound solution was added, a protein substrate at a concentration as specified in the kit, 10 μl of a kinase mixed solution, and 5 μl of a 10-100 μM ATP solution were added to the sample and reacted at room temperature for 60 minutes in a stirrer. Thereafter, 10 μl of a coloring solution was added each to cause a fluorescence reaction of the peptide substrate for 60 minutes, and 10 μl of a stopping solution was added each to terminate the reaction.

EGFR L858R/T790M/C797S = molecular target: T2, EGFR L858R/T790M/C797S (Homo sapiens, UniProt P00533, C797S/L858R/T790M); assay: EGFR enzyme inhibitory activity evaluation (Z'-LYTE kinase assay), L858R/T790M/C797S; assay type: biochemical
T2 construct: purchased Thermo Fisher Scientific Inc
T2 sequence (P00533 25-1210 T790M/C797S/L858R): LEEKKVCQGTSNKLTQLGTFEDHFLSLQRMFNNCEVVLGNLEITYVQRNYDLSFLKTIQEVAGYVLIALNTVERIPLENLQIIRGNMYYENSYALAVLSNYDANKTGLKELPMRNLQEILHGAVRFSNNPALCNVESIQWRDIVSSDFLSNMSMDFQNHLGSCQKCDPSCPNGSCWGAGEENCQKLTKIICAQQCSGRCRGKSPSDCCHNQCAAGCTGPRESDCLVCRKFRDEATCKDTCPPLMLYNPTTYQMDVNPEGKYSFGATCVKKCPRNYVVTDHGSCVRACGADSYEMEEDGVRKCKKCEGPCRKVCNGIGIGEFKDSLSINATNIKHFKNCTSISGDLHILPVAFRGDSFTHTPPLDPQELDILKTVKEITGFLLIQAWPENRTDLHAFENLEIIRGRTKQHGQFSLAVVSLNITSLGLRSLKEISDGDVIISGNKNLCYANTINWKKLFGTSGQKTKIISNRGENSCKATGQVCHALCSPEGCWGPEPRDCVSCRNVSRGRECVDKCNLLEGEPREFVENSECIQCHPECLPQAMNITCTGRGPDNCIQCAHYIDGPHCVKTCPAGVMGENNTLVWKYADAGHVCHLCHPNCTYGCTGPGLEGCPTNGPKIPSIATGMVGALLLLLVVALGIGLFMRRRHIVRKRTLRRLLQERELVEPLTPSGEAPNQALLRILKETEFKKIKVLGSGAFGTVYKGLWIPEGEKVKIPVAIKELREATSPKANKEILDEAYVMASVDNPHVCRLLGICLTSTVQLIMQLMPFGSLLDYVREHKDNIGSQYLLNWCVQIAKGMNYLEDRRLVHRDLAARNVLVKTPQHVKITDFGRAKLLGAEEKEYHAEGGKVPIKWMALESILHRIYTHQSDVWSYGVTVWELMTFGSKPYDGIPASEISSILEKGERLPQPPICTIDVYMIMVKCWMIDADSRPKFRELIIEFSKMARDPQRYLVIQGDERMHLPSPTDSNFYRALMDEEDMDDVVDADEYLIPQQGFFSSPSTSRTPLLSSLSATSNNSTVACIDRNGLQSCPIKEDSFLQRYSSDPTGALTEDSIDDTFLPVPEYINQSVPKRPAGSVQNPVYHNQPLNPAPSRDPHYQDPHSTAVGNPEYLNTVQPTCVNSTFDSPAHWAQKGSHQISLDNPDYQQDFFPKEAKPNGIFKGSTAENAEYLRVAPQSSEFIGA
Method: as §1, §2

EGFR WT = molecular target: T3, EGFR WT (Homo sapiens, UniProt P00533); assay: EGFR enzyme inhibitory activity evaluation (Z'-LYTE kinase assay), WT; assay type: biochemical
T3 construct: purchased Thermo Fisher Scientific Inc
T3 sequence (P00533 25-1210): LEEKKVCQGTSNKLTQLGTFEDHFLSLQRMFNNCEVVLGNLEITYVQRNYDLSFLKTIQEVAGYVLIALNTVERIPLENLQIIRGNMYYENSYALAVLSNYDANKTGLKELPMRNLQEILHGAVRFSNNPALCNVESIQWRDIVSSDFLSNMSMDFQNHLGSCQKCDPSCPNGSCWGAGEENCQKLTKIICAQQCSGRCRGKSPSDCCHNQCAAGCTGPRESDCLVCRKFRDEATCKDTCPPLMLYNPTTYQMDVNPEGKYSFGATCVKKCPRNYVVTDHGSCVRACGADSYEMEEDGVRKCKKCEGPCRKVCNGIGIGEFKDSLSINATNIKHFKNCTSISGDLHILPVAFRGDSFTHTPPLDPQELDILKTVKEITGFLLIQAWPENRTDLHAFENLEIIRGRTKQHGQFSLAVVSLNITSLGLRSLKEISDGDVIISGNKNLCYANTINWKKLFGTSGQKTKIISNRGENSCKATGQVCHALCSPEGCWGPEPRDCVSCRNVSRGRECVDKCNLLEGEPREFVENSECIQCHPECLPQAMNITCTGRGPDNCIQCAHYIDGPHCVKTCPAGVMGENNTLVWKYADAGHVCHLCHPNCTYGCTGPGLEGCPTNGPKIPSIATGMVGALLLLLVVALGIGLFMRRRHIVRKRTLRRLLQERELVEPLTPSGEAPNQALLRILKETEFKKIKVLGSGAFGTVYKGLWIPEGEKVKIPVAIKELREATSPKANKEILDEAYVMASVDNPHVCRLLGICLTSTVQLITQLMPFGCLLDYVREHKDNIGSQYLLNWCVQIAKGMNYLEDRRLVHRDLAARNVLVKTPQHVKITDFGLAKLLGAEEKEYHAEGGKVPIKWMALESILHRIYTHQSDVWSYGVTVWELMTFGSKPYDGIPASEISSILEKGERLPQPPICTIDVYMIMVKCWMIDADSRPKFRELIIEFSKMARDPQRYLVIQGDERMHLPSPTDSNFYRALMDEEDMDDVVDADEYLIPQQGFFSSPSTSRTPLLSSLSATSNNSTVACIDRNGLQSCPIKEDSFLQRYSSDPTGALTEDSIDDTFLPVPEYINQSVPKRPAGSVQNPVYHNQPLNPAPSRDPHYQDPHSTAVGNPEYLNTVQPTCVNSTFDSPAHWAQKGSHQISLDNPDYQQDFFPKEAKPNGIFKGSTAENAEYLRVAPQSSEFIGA
Method: as §1, §2

Compound | GI50 [1] [nM] | GI50 [2] [nM] | pIC50 (EGFR T790M/L858R) | pIC50 (EGFR L858R/T790M/C797S) | pIC50 (EGFR WT)
CCN1CCN(C2CCN(c3ccc(Nc4nc(Nc5ccccc5NS(C)(=O)=O)c5cc[nH]c5n4)cc3F)CC2)CC1 [Example 53, N-(2-((2-((4-(4-(4-ethylpiperazin-1-yl)piperidin-1-yl)-3-fluorophenyl)amino)-7H-pyrrolo[2,3-d]pyrimidine-4-yl)amino)phenyl)methanesulfonamide] | 698 | 7 |  |  | 
CN1CCN(c2ccc(Nc3nc(Nc4ccccc4NS(C)(=O)=O)c4cc[nH]c4n3)cc2F)CC1 [Example 42, N-(2-((2-((3-fluoro-4-(4-methylpiperazin-1-yl)phenyl)amino)-7H-pyrrolo[2,3-d]pyrimidine-4-yl)amino)phenyl)methanesulfonamide] | 951 | 123 |  |  | 
CN1CCN(C2CCN(c3ccc(Nc4nc(Nc5ccccc5N(C)S(C)(=O)=O)c5cc[nH]c5n4)cc3F)CC2)CC1 [Example 13, N-(2-((2-((3-fluoro-4-(4-(4-methylpiperazin-1-yl)piperidin-1-yl)phenyl)amino)-7H-pyrrolo[2,3-d]pyrimidine-4-yl)amino)phenyl)-N-methylmethanesulfonamide] | 267 | 11 |  |  | 
CCN1CCN(C2CCN(c3ccc(Nc4nc(Nc5ccccc5N(C)S(C)(=O)=O)c5cc[nH]c5n4)cc3F)CC2)CC1 [Example 14, N-(2-((2-((3-fluoro-4-(4-(4-ethylpiperazin-1-yl)piperidin-1-yl)phenyl)amino)-7H-pyrrolo[2,3-d]pyrimidine-4-yl)amino)phenyl)-N-methylmethanesulfonamide] | 126 | 15 | 8.54 | 8.40 | 5.35
CN1CC2(C1)CN(c1ccc(Nc3nc(Nc4ccccc4N(C)S(C)(=O)=O)c4cc[nH]c4n3)cc1F)C2 [Example 36, N-(2-((2-((3-fluoro-4-(6-methyl-2,6-diazaspiro[3.3]heptan-2-yl)phenyl)amino)-7H-pyrrolo[2,3-d]pyrimidine-4-yl)amino)phenyl)-N-methylmethanesulfonamide] |  | 20 | 7.92 | 7.89 | 5.66

The remaining molecules from weak to strong by GI50 [1], led by results:

GI50 [1] [nM] | GI50 [2] [nM] | pIC50 (EGFR T790M/L858R) | pIC50 (EGFR L858R/T790M/C797S) | pIC50 (EGFR WT) | Compound
201 | 10 |  |  |  | CCN1CCN(c2ccc(Nc3nc(Nc4ccccc4N(C)S(C)(=O)=O)c4cc[nH]c4n3)cc2F)CC1 [Example 8, N-(2-((2-((3-fluoro-4-(4-ethylpiperazin-1-yl)phenyl)amino)-7H-pyrrolo[2,3-d]pyrimidine-4-yl)amino)phenyl)-N-methylmethanesulfonamide]
160 |  | 8.57 | 8.40 | 5.82 | CCCN1CCN(C2CCN(c3ccc(Nc4nc(Nc5ccccc5N(C)S(C)(=O)=O)c5cc[nH]c5n4)cc3F)CC2)CC1 [Example 16, N-(2-((2-((3-fluoro-4-(4-(4-propylpiperazin-1-yl)piperidin-1-yl)phenyl)amino)-7H-pyrrolo[2,3-d]pyrimidine-4-yl)amino)phenyl)-N-methylmethanesulfonamide]
